Reference: PubChem BioAssay (NCI)
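Growth conditions: 96-well plates. Treatment: test compound, 48 hours, 5 concentrations. Analysis: linear interpolation between bracketing concentrations; unreached endpoints set to highest concentration. GI50 marks 50% less growth. TGI is the concentration that stops growth completely.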

Tests used:
Assay in all cases: NCI anticancer screen, dose series, 48 h
CCRF-CEM leukemia = test system: CCRF-CEM leukemia
HT29 colon = test system: HT29 colon
RPMI-8226 leukemia = test system: RPMI-8226 leukemia
OVCAR-3 ovarian = test system: OVCAR-3 ovarian
SF-295 CNS = test system: SF-295 CNS
SNB-75 CNS = test system: SNB-75 CNS
SW-620 colon = test system: SW-620 colon
OVCAR-8 ovarian = test system: OVCAR-8 ovarian
SN12C renal = test system: SN12C renal
SF-268 CNS = test system: SF-268 CNS
SF-539 CNS = test system: SF-539 CNS
TK-10 renal = test system: TK-10 renal
SK-MEL-28 melanoma = test system: SK-MEL-28 melanoma
HCT-15 colon = test system: HCT-15 colon
SK-MEL-2 melanoma = test system: SK-MEL-2 melanoma
OVCAR-5 ovarian = test system: OVCAR-5 ovarian
IGROV1 ovarian = test system: IGROV1 ovarian
EKVX NSCLC = test system: EKVX NSCLC
RXF 393 renal = test system: RXF 393 renal

| Compound | TGI (CCRF-CEM leukemia) | TGI (HT29 colon) | TGI (RPMI-8226 leukemia) | TGI (OVCAR-3 ovarian) | TGI (SF-295 CNS) | TGI (SNB-75 CNS) | TGI (SW-620 colon) | TGI (OVCAR-8 ovarian) | TGI (SN12C renal) | TGI (SF-268 CNS) | TGI (SF-539 CNS) | TGI (TK-10 renal) | TGI (SK-MEL-28 melanoma) | TGI (HCT-15 colon) | TGI (SK-MEL-2 melanoma) | TGI (OVCAR-5 ovarian) | TGI (IGROV1 ovarian) | TGI (EKVX NSCLC) | TGI (RXF 393 renal) | GI50 (HCT-15 colon) |
| --- | --- | --- | --- | --- | --- | --- | --- | --- | --- | --- | --- | --- | --- | --- | --- | --- | --- | --- | --- | --- |
| CC1(C)S[C@@H]2[C@H](NC(=O)/C=C/c3ccccc3)C(=O)N2[C@H]1C(=O)O | > 100 µM | > 100 µM | > 100 µM | > 100 µM | > 100 µM | > 100 µM | > 100 µM | > 100 µM | > 100 µM | > 100 µM | > 100 µM | > 100 µM | > 100 µM | > 100 µM | > 100 µM | > 100 µM | > 100 µM |  |  |  |
| CO[C@@]12CC(=O)/C(=C(O)\C=C\c3ccccc3)C(=O)[C@]1(OC)Cc1ccccc1O2 | 84.6 µM | > 100 µM |  | 55.9 µM | > 100 µM | > 100 µM | > 100 µM | 77.3 µM | > 100 µM | 91.1 µM | 55.4 µM | 73.4 µM | 59.8 µM | 51.7 µM | > 100 µM | 82.8 µM | > 100 µM | > 100 µM | 36.5 µM |  |
| COc1cccc(/C=C2\C(=O)N(C(=O)Cc3ccccc3)N=C2C)c1 | > 100 µM | > 100 µM | > 100 µM | > 100 µM | > 100 µM | > 100 µM | > 100 µM | > 100 µM | > 100 µM | > 100 µM | > 100 µM | > 100 µM | > 100 µM | > 100 µM | > 100 µM | > 100 µM |  | > 100 µM |  |  |
| NC(=O)C(=CN1CC(=O)NC1=S)C(N)=O |  | > 100 µM |  | > 100 µM | > 100 µM | > 100 µM | > 100 µM | > 100 µM | > 100 µM | > 100 µM | > 100 µM | > 100 µM | > 100 µM | > 100 µM | > 100 µM | > 100 µM | > 100 µM | > 100 µM | > 100 µM |  |
| CCOC(=O)CCc1c(C)[nH]c2c(C)c3c([nH]c4ccc(Cl)cc43)c(C)c2c1=O | > 100 µM | 18.6 µM |  |  | 22.1 µM | 30.9 µM | > 100 µM | 83.8 µM |  | 76.7 µM | 28.7 µM | 37.2 µM | 46.1 µM | 54.5 µM | 14.4 µM | 19.1 µM | 26.2 µM | 37.6 µM | 6.76 µM |  |
| Nn1c(N=Nc2c(O)[nH]c3ccccc23)n[nH]c1=S | > 100 µM | > 100 µM | > 100 µM | > 100 µM | > 100 µM |  | > 100 µM | > 100 µM | > 100 µM | > 100 µM | > 100 µM | > 100 µM | > 100 µM | > 100 µM | > 100 µM | > 100 µM | > 100 µM | > 100 µM | 95.1 µM |  |
| CCOC(=O)c1cn2c([nH]c3ccccc32)c(C#N)c1=O | > 100 µM | > 100 µM |  | > 100 µM | > 100 µM | > 100 µM | 39.5 µM | > 100 µM | > 100 µM | > 100 µM | > 100 µM | > 100 µM | > 100 µM | > 100 µM | > 100 µM | > 100 µM | > 100 µM | > 100 µM | > 100 µM |  |
| C[N+](C)(Cc1ccc(NC(=O)CCCC(=O)ON2C(=O)CCC2=O)cc1)c1ccccc1 | > 100 µM | > 100 µM |  | > 100 µM | > 100 µM | 2.42 µM | > 100 µM | > 100 µM | > 100 µM | 3.93 µM | < 0.01 µM | > 100 µM | < 0.01 µM | > 100 µM | > 100 µM | < 0.01 µM |  |  |  | > 100 µM |
| COc1ccc(Nc2nc3ccccc3nc2C(=O)O)cc1 | > 100 µM | > 100 µM |  | > 100 µM | > 100 µM | > 100 µM | > 100 µM | > 100 µM | > 100 µM | > 100 µM | > 100 µM | > 100 µM | > 100 µM | > 100 µM | > 100 µM | > 100 µM | > 100 µM | > 100 µM | > 100 µM |  |
| COC(=O)C(=O)C1CCCCC(C2=NC3NN=C(N)N3C2=O)C1=O (stereo not given) | > 100 µM | > 100 µM |  | > 100 µM | > 100 µM | > 100 µM | > 100 µM | > 100 µM | > 100 µM | > 100 µM | > 100 µM | > 100 µM | > 100 µM | > 100 µM | > 100 µM | > 100 µM | > 100 µM | > 100 µM | > 100 µM |  |
| CNC(=O)OCCN1c2ccccc2Sc2ccccc21 | > 100 µM | > 100 µM |  | > 100 µM | > 100 µM |  | > 100 µM | > 100 µM | > 100 µM | > 100 µM | > 100 µM | > 100 µM | > 100 µM | > 100 µM |  | > 100 µM | > 100 µM | > 100 µM | 99.2 µM |  |
| Cc1cc2c(=O)[nH]nc(N)c2c(N)n1 | > 100 µM | > 100 µM | > 100 µM |  | > 100 µM |  | > 100 µM | > 100 µM | > 100 µM | > 100 µM |  | > 100 µM | > 100 µM | > 100 µM | > 100 µM | > 100 µM | > 100 µM | > 100 µM | > 100 µM |  |
| O=C(Nc1cc(Cl)c(Cl)cc1Cl)C(=O)C(C(=O)c1ccc2ccccc2c1)C1OC(=O)c2ccccc21 (stereo not given) |  | 37.3 µM | > 100 µM | 59.5 µM | 21 µM |  | 25.6 µM | 23.6 µM | 42.5 µM |  | 13 µM |  | 22.1 µM | 45.2 µM | 33.8 µM | 31.9 µM | 44.7 µM | 36.6 µM | 15.1 µM |  |
